From PubChem BioAssay (NCI)
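GI50: concentration for 50% inhibition of growth. TGI denotes the concentration required for complete inhibition of growth.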

Columns and labels:
Assay in all cases: inhibition of tumour cell growth, NCI panel, 384-well format
NCI-H226 lung = test system: NCI-H226 lung
UACC-257 melanoma = test system: UACC-257 melanoma
SK-MEL-5 melanoma = test system: SK-MEL-5 melanoma
SN12C renal = test system: SN12C renal
SR leukemia = test system: SR leukemia
U251 glioblastoma = test system: U251 glioblastoma
CCRF-CEM leukemia = test system: CCRF-CEM leukemia
SF-295 CNS = test system: SF-295 CNS
KM12 colon = test system: KM12 colon
MDA-MB-468 breast = test system: MDA-MB-468 breast
NCI-H23 lung = test system: NCI-H23 lung
MDA-MB-435 melanoma = test system: MDA-MB-435 melanoma
MDA-MB-231 breast = test system: MDA-MB-231 breast
A549 NSCLC = test system: A549 NSCLC
HCT-116 colon = test system: HCT-116 colon
EKVX NSCLC = test system: EKVX NSCLC
UACC-62 melanoma = test system: UACC-62 melanoma
OVCAR-8 ovarian = test system: OVCAR-8 ovarian
MCF7 breast = test system: MCF7 breast
CAKI-1 renal = test system: CAKI-1 renal
786-0 renal = test system: 786-0 renal
SF-539 CNS = test system: SF-539 CNS
SK-OV-3 ovarian = test system: SK-OV-3 ovarian
NCI/ADR-RES ovarian = test system: NCI/ADR-RES ovarian
A498 renal = test system: A498 renal
LOX IMVI melanoma = test system: LOX IMVI melanoma
DU-145 prostate = test system: DU-145 prostate
HOP-62 NSCLC = test system: HOP-62 NSCLC
COLO 205 colon = test system: COLO 205 colon

CN1CCN(c2ccc(Nc3ncc4cc5n(c4n3)C3(CCCCC3)CNC5=O)nc2)CC1
GI50 (NCI-H226 lung): 0.362 µM | TGI (NCI-H226 lung): 4.23 µM | GI50 (UACC-257 melanoma): 5.59 µM | TGI (UACC-257 melanoma): 17.4 µM | GI50 (SK-MEL-5 melanoma): 2.39 µM | TGI (SK-MEL-5 melanoma): 12.7 µM | GI50 (SN12C renal): 1.83 µM | TGI (SN12C renal): 7.87 µM | GI50 (SR leukemia): 0.0408 µM | TGI (SR leukemia): 0.196 µM | GI50 (U251 glioblastoma): 3.14 µM | TGI (U251 glioblastoma): 15.2 µM | GI50 (CCRF-CEM leukemia): 0.399 µM | TGI (CCRF-CEM leukemia): 1.81 µM | GI50 (SF-295 CNS): 1.75 µM | TGI (SF-295 CNS): 7.59 µM | GI50 (KM12 colon): 1.34 µM | TGI (KM12 colon): 14.3 µM | GI50 (MDA-MB-468 breast): 4.26 µM | TGI (MDA-MB-468 breast): 10.8 µM | GI50 (NCI-H23 lung): 1.81 µM | TGI (NCI-H23 lung): 3.83 µM | GI50 (MDA-MB-435 melanoma): 4.34 µM | TGI (MDA-MB-435 melanoma): 24.8 µM | GI50 (MDA-MB-231 breast): 0.796 µM | TGI (MDA-MB-231 breast): 3.23 µM | GI50 (A549 NSCLC): 1.65 µM | TGI (A549 NSCLC): 9.44 µM | GI50 (HCT-116 colon): 1.41 µM | TGI (HCT-116 colon): 5.38 µM | GI50 (EKVX NSCLC): 3.11 µM | TGI (EKVX NSCLC): 11 µM | GI50 (UACC-62 melanoma): 1.69 µM | TGI (UACC-62 melanoma): 7.78 µM | GI50 (OVCAR-8 ovarian): 3.57 µM | TGI (OVCAR-8 ovarian): 10.5 µM | GI50 (MCF7 breast): 1.39 µM | TGI (MCF7 breast): 9.19 µM | GI50 (CAKI-1 renal): 1.21 µM | TGI (CAKI-1 renal): > 40.5 µM | GI50 (786-0 renal): 2.34 µM | TGI (786-0 renal): > 100 µM | GI50 (SF-539 CNS): 1.75 µM | TGI (SF-539 CNS): 3.44 µM | GI50 (SK-OV-3 ovarian): 5.23 µM | TGI (SK-OV-3 ovarian): > 42.6 µM | GI50 (NCI/ADR-RES ovarian): 8.49 µM | TGI (NCI/ADR-RES ovarian): 23.8 µM | GI50 (A498 renal): 3.03 µM | TGI (A498 renal): 14.5 µM | GI50 (LOX IMVI melanoma): 0.993 µM | TGI (LOX IMVI melanoma): 3.02 µM | GI50 (DU-145 prostate): 3.22 µM | TGI (DU-145 prostate): 9.41 µM | GI50 (HOP-62 NSCLC): 1.99 µM | TGI (HOP-62 NSCLC): 6.75 µM | GI50 (COLO 205 colon): 0.844 µM | TGI (COLO 205 colon): 5.67 µM
